Assay results: patent US6649398B2, “Method for inducing bacterial growth using autoinducers” (University of Leicester, priority 1997, dated 2003)

Experiments:
Morganella morganii = test: Growth response in serum-SAPI medium (CFU/ml); assay type: cell-based; conditions: control 3.7 × 10^4
Method: (§1) Bacteria (approximately 50-500 cfu/ml) are inoculated into SAPI minimal medium (6.25 mM NH4NO3, 1.84 mM KH2PO4, 3.35 mM KCl, 1.01 mM MgSO4 and 2.77 mM glucose, pH 7.5) supplemented with 30% (v/v) adult bovine serum (Sigma), and either 1% (v/v) previously made E.coli autoinducer or 50 mM norepinephrine.
(§2) The cultures are grown statically (i.e. without aeration by shaking) for 24 hours at 37° C. in a 5% CO2 incubator.
(§3) It has been shown that certain of these bacteria respond to norepinephrine (NE) and synthesise their own autoinducers, all of which are heat-stable low molecular weight molecules (less than 1000 Da) similar in size to the E. coli autoinducer (Table 4, FIG. 5).

Enterobacter cloacae = test: Growth response in serum-SAPI medium (CFU/ml); assay type: cell-based; conditions: control 7.2 × 10^6
Method: as §1, §2, §3

Enterobacter sakazaki = test: Growth response in serum-SAPI medium (CFU/ml); assay type: cell-based; conditions: control 3.0 × 10^6
Method: as §1, §2, §3

Pseudomonas aeruginosa = test: Growth response in serum-SAPI medium (CFU/ml); assay type: cell-based; conditions: control 3.7 × 10^4
Method: as §1, §2, §3

Staphylococcus aureus = test: Growth response in serum-SAPI medium (CFU/ml); assay type: cell-based; conditions: control 3.2 × 10^5
Method: as §1, §2, §3

Acinetobacter lwoffii = test: Growth response in serum-SAPI medium (CFU/ml); assay type: cell-based; conditions: control 1.0 × 10^4
Method: as §1, §2, §3

Enterococcus faecalis = test: Growth response in serum-SAPI medium (CFU/ml); assay type: cell-based; conditions: control 5.0 × 10^5
Method: as §1, §2, §3

Klebsiella oxytoca = test: Growth response in serum-SAPI medium (CFU/ml); assay type: cell-based; conditions: control 4.2 × 10^4
Method: as §1, §2, §3

Enterococcus faecium = test: Growth response in serum-SAPI medium (CFU/ml); assay type: cell-based; conditions: control 2.1 × 10^5
Method: as §1, §2, §3

Klebsiella pneumoniae = test: Growth response in serum-SAPI medium (CFU/ml); assay type: cell-based; conditions: control 3.1 × 10^4
Method: as §1, §2, §3

[1] = test system: Streptococcus dysgalactiae; test: Growth response in serum-SAPI medium (CFU/ml); assay type: cell-based; conditions: control 2.0 × 10^7
Method: as §1, §2, §3

Staphylococcus albus = test: Growth response in serum-SAPI medium (CFU/ml); assay type: cell-based; conditions: control 1.1 × 10^3
Method: as §1, §2, §3

Hafnia alvei = test: Growth response in serum-SAPI medium (CFU/ml); assay type: cell-based; conditions: control 1.2 × 10^4
Method: as §1, §2, §3

Enterobacter agglomerans = test: Growth response in serum-SAPI medium (CFU/ml); assay type: cell-based; conditions: control 2.9 × 10^4
Method: as §1, §2, §3

Yersinia entercolitica = test: Growth response in serum-SAPI medium (CFU/ml); assay type: cell-based; conditions: control 4.2 × 10^4
Method: as §1, §2, §3

Enterobacter aerogenes = test: Growth response in serum-SAPI medium (CFU/ml); assay type: cell-based; conditions: control 3.2 × 10^8
Method: as §1, §2, §3

Citrobacter freundii = test: Growth response in serum-SAPI medium (CFU/ml); assay type: cell-based; conditions: control 1.9 × 10^6
Method: as §1, §2, §3

Streptococcus sanguis = test: Growth response in serum-SAPI medium (CFU/ml); assay type: cell-based; conditions: control 2.1 × 10^4
Method: as §1, §2, §3

[2] = test system: Salmonella enterica sv Enteriditis; test: Growth response in serum-SAPI medium (CFU/ml); assay type: cell-based; conditions: control 7.5 × 10^5
Method: as §1, §2, §3

Listeria monocytogenes = test: Growth response in serum-SAPI medium (CFU/ml); assay type: cell-based; conditions: control 2.5 × 10^5
Method: as §1, §2, §3

Proteus mirabilis = test: Growth response in serum-SAPI medium (CFU/ml); assay type: cell-based; conditions: control 1.1 × 10^3
Method: as §1, §2, §3

Xanthomonas maltophilia = test: Growth response in serum-SAPI medium (CFU/ml); assay type: cell-based; conditions: control 1.7 × 10^5
Method: as §1, §2, §3

Escherichia coli = test: Growth response in serum-SAPI medium (CFU/ml); assay type: cell-based; conditions: control 7.5 × 10^4
Method: as §1, §2, §3

Serratia marcescens = test: Growth response in serum-SAPI medium (CFU/ml); assay type: cell-based; conditions: control 8.5 × 10^7
Method: as §1, §2, §3

bacteria = test: Growth stimulation assay (serum assay); assay type: cell-based; conditions: for Stimulation of growth and autoinducer production in serum assay: equivalent mM concentrations
[3] = cited from earlier work

NC[C@H](O)c1ccc(O)c(O)c1 [NE, norepinephrine]
Response (growth), CFU/ml (Morganella morganii): 1.6 × 10^7 CFU/ml | Response (growth), CFU/ml (Enterobacter cloacae): 1.1 × 10^8 CFU/ml | Response (growth), CFU/ml (Enterobacter sakazaki): 4.1 × 10^7 CFU/ml | Response (growth), CFU/ml (Pseudomonas aeruginosa): 2.1 × 10^7 CFU/ml | Response (growth), CFU/ml (Staphylococcus aureus): 5.7 × 10^5 CFU/ml | Response (growth), CFU/ml (Acinetobacter lwoffii): 2.9 × 10^7 CFU/ml | Response (growth), CFU/ml (Enterococcus faecalis): 5.5 × 10^6 CFU/ml | Response (growth), CFU/ml (Klebsiella oxytoca): 1.6 × 10^8 CFU/ml | Response (growth), CFU/ml (Enterococcus faecium): 5.6 × 10^6 CFU/ml | Response (growth), CFU/ml (Klebsiella pneumoniae): 6.7 × 10^7 CFU/ml | Response (growth), CFU/ml [1]: 2.4 × 10^6 CFU/ml | Response (growth), CFU/ml (Staphylococcus albus): 1.5 × 10^7 CFU/ml | Response (growth), CFU/ml (Hafnia alvei): 3.7 × 10^8 CFU/ml | Response (growth), CFU/ml (Enterobacter agglomerans): 6.1 × 10^6 CFU/ml | Response (growth), CFU/ml (Yersinia entercolitica): 1.7 × 10^8 CFU/ml | Response (growth), CFU/ml (Enterobacter aerogenes): 5.5 × 10^8 CFU/ml | Response (growth), CFU/ml (Citrobacter freundii): 3.5 × 10^7 CFU/ml | Response (growth), CFU/ml (Streptococcus sanguis): 1.1 × 10^4 CFU/ml | Response (growth), CFU/ml [2]: 1.0 × 10^8 CFU/ml | Response (growth), CFU/ml (Listeria monocytogenes): 3.5 × 10^6 CFU/ml | Response (growth), CFU/ml (Proteus mirabilis): 1.0 × 10^7 CFU/ml | Response (growth), CFU/ml (Xanthomonas maltophilia): 2.1 × 10^6 CFU/ml | Response (growth), CFU/ml (Escherichia coli): 5.9 × 10^8 CFU/ml | Response (growth), CFU/ml (Serratia marcescens): 3.4 × 10^8 CFU/ml

CCN(CC)CC.O=C(O)O [TEAB, triethylammonium bicarbonate]
Inhibition in the growth stimulation assays (bacteria; concentrations up to 20 mM): not inhibitory

CC(=O)O [acetate]
Stimulation of growth and autoinducer production in serum assay (bacteria): not

Cl.N [ammonium chloride]
Stimulation of growth and autoinducer production in serum assay (bacteria): not

N.N.O=S(=O)(O)O [ammonium sulfate]
Stimulation of growth and autoinducer production in serum assay (bacteria): can stimulate growth and autoinducer production

O=C(O)O [bicarbonate]
Stimulation of growth and autoinducer production in serum assay (bacteria): not

O=C(N[C@H]1COC(=O)[C@@H](NC(=O)c2cccc(O)c2O)COC(=O)[C@@H](NC(=O)c2cccc(O)c2O)COC1=O)c1cccc(O)c1O [enterochelin]
Solubility in organic solvents [3]: soluble in organic solvents

O=CO [formate]
Stimulation of growth and autoinducer production in serum assay (bacteria): not
